molecular target: phosphorylated form of full length BTK (active BTK) (Homo sapiens (Human), UniProt Q06187); assay: Mobility shift assay (MSA, Caliper LabChip), active BTK assay; assay type: biochemical; conditions: Assay type B (MSA using active BTK)
Experimental: The active BTK assay consists of phosphorylated form of full length BTK. […] The enzyme inhibitor complexes is incubated, before the kinase activation reaction is initiated.
Mobility Shift Assay (MSA)
The active BTK assay consisted of phosphorylated form of full length BTK. […] The enzyme inhibitor complexes was incubated for 30 minutes at the room temperature and the kinase activation reaction was initiated by the addition of 1 μM Srctide peptide substrate and […].

Sequence of phosphorylated form of full length BTK (active BTK) (Q06187 whole entry): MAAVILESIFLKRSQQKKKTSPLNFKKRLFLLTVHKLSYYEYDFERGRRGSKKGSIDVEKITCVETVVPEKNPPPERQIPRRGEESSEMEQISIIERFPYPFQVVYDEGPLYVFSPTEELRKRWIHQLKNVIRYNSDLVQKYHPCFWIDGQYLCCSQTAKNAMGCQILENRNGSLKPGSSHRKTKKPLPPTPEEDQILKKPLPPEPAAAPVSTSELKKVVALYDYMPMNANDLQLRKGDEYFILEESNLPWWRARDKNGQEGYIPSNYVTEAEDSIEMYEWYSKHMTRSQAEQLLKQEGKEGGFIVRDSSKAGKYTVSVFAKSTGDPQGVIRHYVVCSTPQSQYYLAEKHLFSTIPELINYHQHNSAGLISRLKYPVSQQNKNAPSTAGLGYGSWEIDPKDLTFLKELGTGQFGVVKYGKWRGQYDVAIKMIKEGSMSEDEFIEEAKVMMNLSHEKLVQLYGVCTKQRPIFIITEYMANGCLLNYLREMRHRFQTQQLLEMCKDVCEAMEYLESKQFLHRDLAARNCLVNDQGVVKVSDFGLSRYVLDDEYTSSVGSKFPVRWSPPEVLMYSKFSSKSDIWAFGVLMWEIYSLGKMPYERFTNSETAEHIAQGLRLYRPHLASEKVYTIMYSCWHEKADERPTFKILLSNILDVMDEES

SMILES	IC50 [nM]
CC(=O)N[C@H]1C[C@H](Nc2ncnc3[nH]cc(C(=O)c4ccc(Oc5ccccc5)cc4)c23)C1 [Compound I-199, N-(trans-3-((5-(4-phenoxybenzoyl)-7H-pyrrolo[2,3-d]pyrimidin-4-yl)amino)cyclobutyl)acetamide]	6.8
C[C@]1(O)CC[C@@H](Nc2ncnc3[nH]cc(C(=O)c4ccc(Oc5ccccc5)cc4Cl)c23)CC1 [Compound I-200, (2-chloro-4-phenoxyphenyl)(4-((cis-4-hydroxy-4-methylcyclohexyl)amino)-7H-pyrrolo[2,3-d]pyrimidin-5-yl)methanone]	1.4
CC(=O)N[C@@H](C)[C@@H]1CC[C@@H](Nc2ncnc3[nH]cc(C(=O)c4ccc(Oc5ccccc5)cc4C)c23)CO1 [Compound I-204, N-((S)-1-((2S,5R)-5-((5-(2-methyl-4-phenoxybenzoyl)-7H-pyrrolo[2,3-d]pyrimidin-4-yl)amino)tetrahydro-2H-pyran-2-yl)ethyl)acetamide]	1.1
O=C(c1ccc(Oc2ccccc2)cc1Cl)c1c[nH]c2ncnc(N[C@H]3C[C@H](CO)C3)c12 [Compound I-207, (2-chloro-4-phenoxyphenyl)(4-((trans-3-(hydroxymethyl)cyclobutyl)amino)-7H-pyrrolo[2,3-d]pyrimidin-5-yl)methanone]	4.1
C[C@H](O)C(=O)N[C@@H](C)[C@@H]1CC[C@@H](Nc2ncnc3[nH]cc(C(=O)c4ccc(Oc5ccccc5)cc4Cl)c23)CO1 [Compound I-208, (S)—N—((S)-1-((2S,5R)-5-((5-(2-chloro-4-phenoxybenzoyl)-7H-pyrrolo[2,3-d]pyrimidin-4-yl)amino)tetrahydro-2H-pyran-2-yl)ethyl)-2-hydroxypropanamide]	3.1
C[C@H](O)C(=O)NC[C@@H]1CC[C@@H](Nc2ncnc3[nH]cc(C(=O)c4ccc(Oc5ccccc5)cc4Cl)c23)CO1 [Compound I-210, (S)—N-(((2S,5R)-5-((5-(2-chloro-4-phenoxybenzoyl)-7H-pyrrolo[2,3-d]pyrimidin-4-yl)amino)tetrahydro-2H-pyran-2-yl)methyl)-2-hydroxypropanamide]	1.9
C[C@H](O)C(=O)NC[C@@H]1CC[C@@H](Nc2ncnc3[nH]cc(C(=O)c4ccc(Oc5ccccc5)cc4)c23)CO1 [Compound I-211, (S)-2-hydroxy-N-(((2S,5R)-5-((5-(4-phenoxybenzoyl)-7H-pyrrolo[2,3-d]pyrimidin-4-yl)amino)tetrahydro-2H-pyran-2-yl)methyl)propanamide]	2.9
C[C@H](NC(=O)[C@@H](C)O)[C@@H]1CC[C@@H](Nc2ncnc3[nH]cc(C(=O)c4ccc(Oc5ccccc5)cc4Cl)c23)CO1 [Compound I-213, (R)—N—((S)-1-((2S,5R)-5-((5-(2-chloro-4-phenoxybenzoyl)-7H-pyrrolo[2,3-d]pyrimidin-4-yl)amino)tetrahydro-2H-pyran-2-yl)ethyl)-2-hydroxypropanamide]	2.5
C[C@H](NC(=O)[C@@H](C)O)[C@@H]1CC[C@@H](Nc2ncnc3[nH]cc(C(=O)c4ccc(Oc5ccccc5)cc4)c23)CO1 [Compound I-215, (R)-2-hydroxy-N-((S)-1-((2S,5R)-5-((5-(4-phenoxybenzoyl)-7H-pyrrolo[2,3-d]pyrimidin-4-yl)amino)tetrahydro-2H-pyran-2-yl)ethyl)propanamide]	3.9
C[C@@H](O)C(=O)NC[C@@H]1CC[C@@H](Nc2ncnc3[nH]cc(C(=O)c4ccc(Oc5ccccc5)cc4)c23)CO1 [Compound I-217, (R)-2-hydroxy-N-(((2S,5R)-5-((5-(4-phenoxybenzoyl)-7H-pyrrolo[2,3-d]pyrimidin-4-yl)amino)tetrahydro-2H-pyran-2-yl)methyl)propanamide]	3.2

Further lines, results first:

IC50 [nM]	SMILES
2.6	CC(=O)N[C@@H](C)[C@@H]1CC[C@@H](Nc2ncnc3[nH]cc(C(=O)c4ccc(Oc5ccccc5)cc4)c23)CO1 [Compound I-198, N-((S)-1-((2S,5R)-5-((5-(4-phenoxybenzoyl)-7H-pyrrolo[2,3-d]pyrimidin-4-yl)amino)tetrahydro-2H-pyran-2-yl)ethyl)acetamide]
1.5	C[C@]1(O)CC[C@H](Nc2ncnc3[nH]cc(C(=O)c4ccc(Oc5ccccc5)cc4Cl)c23)CC1 [Compound I-201, (2-chloro-4-phenoxyphenyl)(4-((trans-4-hydroxy-4-methylcyclohexyl)amino)-7H-pyrrolo[2,3-d]pyrimidin-5-yl)methanone]
1	C[C@H](O)C(=O)N[C@H]1CC[C@@H](Nc2ncnc3[nH]cc(C(=O)c4ccc(Oc5ccccc5)cc4)c23)CC1 [Compound I-202, (S)-2-hydroxy-N-(cis-4-((5-(4-phenoxybenzoyl)-7H-pyrrolo[2,3-d]pyrimidin-4-yl)amino)cyclohexyl)propanamide]
1.4	CC(C)(O)C(=O)N[C@H]1CC[C@@H](Nc2ncnc3[nH]cc(C(=O)c4ccc(Oc5ccccc5)cc4)c23)CC1 [Compound I-203, 2-hydroxy-2-methyl-N-(cis-4-((5-(4-phenoxybenzoyl)-7H-pyrrolo[2,3-d]pyrimidin-4-yl)amino)cyclohexyl)propanamide]
1.6	CC(=O)NC[C@@H]1CC[C@@H](Nc2ncnc3[nH]cc(C(=O)c4ccc(Oc5ccccc5)cc4)c23)CO1 [Compound I-205, N-(((2S,5R)-5-((5-(4-phenoxybenzoyl)-7H-pyrrolo[2,3-d]pyrimidin-4-yl)amino)tetrahydro-2H-pyran-2-yl)methyl)acetamide]
1.8	C[C@@H](O)C(=O)N[C@H]1CC[C@@H](Nc2ncnc3[nH]cc(C(=O)c4ccc(Oc5ccccc5)cc4)c23)CC1 [Compound I-206, (R)-2-hydroxy-N-(cis-4-((5-(4-phenoxybenzoyl)-7H-pyrrolo[2,3-d]pyrimidin-4-yl)amino)cyclohexyl)propanamide]
4	C[C@H](O)C(=O)N[C@@H](C)[C@@H]1CC[C@@H](Nc2ncnc3[nH]cc(C(=O)c4ccc(Oc5ccccc5)cc4)c23)CO1 [Compound I-209, (S)-2-hydroxy-N-((S)-1-((2S,5R)-5-((5-(4-phenoxybenzoyl)-7H-pyrrolo[2,3-d]pyrimidin-4-yl)amino)tetrahydro-2H-pyran-2-yl)ethyl)propanamide]
1.9	C[C@@H](O)C(=O)NC[C@@H]1CC[C@@H](Nc2ncnc3[nH]cc(C(=O)c4ccc(Oc5ccccc5)cc4Cl)c23)CO1 [Compound I-216, (R)—N-(((2S,5R)-5-((5-(2-chloro-4-phenoxybenzoyl)-7H-pyrrolo[2,3-d]pyrimidin-4-yl)amino)tetrahydro-2H-pyran-2-yl)methyl)-2-hydroxypropanamide]
